Results on 30 compounds are retold here after patent US20060264460A1 (Wyeth, priority 2005, published 2006).

The target of this assay is T1, human Cot/Tpl2 kinase (Homo sapiens, UniProt P41279).
T1 construct: human Cot/Tpl2 kinase construct encoding residues 30-398; 6His (N); made in house; host or cells: Sf9 insect cells, baculovirus system (BD Biosciences)
T1 sequence (P41279 30-398): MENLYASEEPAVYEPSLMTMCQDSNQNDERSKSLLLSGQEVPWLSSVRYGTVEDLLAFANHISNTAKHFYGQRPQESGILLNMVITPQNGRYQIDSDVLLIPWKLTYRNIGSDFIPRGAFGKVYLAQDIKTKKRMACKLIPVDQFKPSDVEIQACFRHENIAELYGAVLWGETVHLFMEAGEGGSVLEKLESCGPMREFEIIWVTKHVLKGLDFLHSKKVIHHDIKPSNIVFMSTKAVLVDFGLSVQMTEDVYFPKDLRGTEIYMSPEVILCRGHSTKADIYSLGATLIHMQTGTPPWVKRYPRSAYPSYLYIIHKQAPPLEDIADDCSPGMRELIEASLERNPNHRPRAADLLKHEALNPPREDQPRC
The experiment in a line: Tpl2/Cot kinase assay: GST-MEK1 phosphorylation detected by ELISA (DELFIA Eu). Particulars: 0.4 nM Tpl2, 35 nM GST-MEK1, 50 uM ATP, 1 h at 30° C. It counts as biochemical. A digest of the protocol: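 Substrate phosphorylation (GST-MEK1 Ser217/221) quantified by DELFIA europium ELISA, yielding IC50 values. Reaction: 1 h at 30° C, pH 7.2 MOPS buffer, 50 uM ATP, 35 nM GST-MEK1, 0.4 nM monomeric His-Tpl2 purified from Sf9 cells, compounds at 1% final DMSO; stopped with EDTA.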
`Cc1c(CNc2cc(F)c3ncc(C#N)c(Nc4ccc(F)c(Cl)c4)c3c2)ncn1C` [Example 269, 4-[(3-chloro-4-fluorophenyl)amino]-6-{[(1,5-dimethyl-1H-imidazol-4-yl)methyl]amino}-8-fluoroquinoline-3-carbonitrile] yielded an IC50 of 16 nM.
Turning to `N#Cc1cnc2c(F)cc(NCc3cc[n+]([O-])cc3)cc2c1Nc1ccc(F)c(Cl)c1` [Example 270, 4-[(3-Chloro-4-fluorophenyl)amino]-8-fluoro-6-{[(1-oxidopyridin-4-yl)methyl]amino}quinoline-3-carbonitrile], the midpoint of inhibition, the IC50, lay at 100 nM.
Consider `N#Cc1cnc2c(Cl)cc(NCc3cc[n+]([O-])cc3)cc2c1Nc1ccc(F)c(Cl)c1` [Example 271, 8-Chloro-4-[(3-chloro-4-fluorophenyl)amino]-6-{[(1-oxidopyridin-4-yl)methyl]amino}quinoline-3-carbonitrile], for which inhibition was half-maximal at 54 nM (IC50).
For the compound `N#Cc1cnc2c(Cl)cc(NCc3cncnc3)cc2c1Nc1ccc(F)c(Cl)c1` [Example 272, 8-Chloro-4-(3-chloro-4-fluoro-phenylamino)-6-[(pyrimidin-5-ylmethyl)-amino]-quinoline-3-carbonitrile], the IC50 was 47 nM.
With `COc1ccc(CNc2cc(Cl)c3ncc(C#N)c(Nc4ccc(F)c(Cl)c4)c3c2)cc1OCCN1CCOCC1` [Example 273, 8-Chloro-4-[(3-chloro-4-fluorophenyl)amino]-6-{[4-methoxy-3-(2-morpholin-4-ylethoxy)benzyl]amino}quinoline-3-carbonitrile], the IC50 came to 83 nM.
With `N#Cc1cnc2c(Cl)cc(NCc3cccc(N4CCOCC4)n3)cc2c1Nc1ccc(F)c(Cl)c1` [Example 274, 8-chloro-4-[(3-chloro-4-fluorophenyl)amino]-6-{[(6-morpholin-4-ylpyridin-2-yl)methyl]amino}quinoline-3-carbonitrile], it took 35 nM to reach half-maximal inhibition (IC50).
Take `N#Cc1cnc2c(Cl)cc(NCc3ccc(C(F)(F)F)[n+]([O-])c3)cc2c1Nc1ccc(F)c(Cl)c1` [Example 275, 8-Chloro-4-[(3-chloro-4-fluorophenyl)amino]-6-({[1-oxido-6-(trifluoromethyl)pyridin-3-yl]methyl}amino)quinoline-3-carbonitrile]: the IC50 is 370 nM.
In the case of `COc1c(C)cnc(CNc2cc(Cl)c3ncc(C#N)c(Nc4ccc(F)c(Cl)c4)c3c2)c1C` [Example 276, 8-chloro-4-[(3-chloro-4-fluorophenyl)amino]-6-{[(4-methoxy-3,5-dimethylpyridin-2-yl)methyl]amino}quinoline-3-carbonitrile] it was 4700 nM.
The compound `COc1c(C)c[n+]([O-])c(CNc2cc(Cl)c3ncc(C#N)c(Nc4ccc(F)c(Cl)c4)c3c2)c1C` [Example 277, 8-Chloro-4-[(3-chloro-4-fluorophenyl)amino]-6-{[(4-methoxy-3,5-dimethyl-1-oxidopyridin-2-yl)methyl]amino}quinoline-3-carbonitrile] yielded an IC50 of 66 nM.
As for `N#Cc1cnc2c(Cl)cc(NCc3ccnc4ccccc34)cc2c1Nc1ccc(F)c(Cl)c1` [Example 278, 8-Chloro-4-[(3-chloro-4-fluorophenyl)amino]-6-[(quinolin-4-ylmethyl)amino]quinoline-3-carbonitrile], the IC50 was found to be 460 nM.
In the case of `N#Cc1cnc2c(Cl)cc(NCc3nnn[nH]3)cc2c1Nc1ccc(F)c(Cl)c1` [Example 279, 8-Chloro-4-[(3-chloro-4-fluorophenyl)amino]-6-[(1 H-tetrazol-5-ylmethyl)amino]quinoline-3-carbonitrile] it was 2.6 nM; in that of `CNc1nc(SC)ncc1CNc1cc(Cl)c2ncc(C#N)c(Nc3ccc(F)c(Cl)c3)c2c1` [Example 280, 8-chloro-4-[(3-chloro-4-fluorophenyl)amino]-6-({[4-(methylamino)-2-(methylthio)pyrimidin-5-yl]methyl]amino)quinoline-3-carbonitrile], greater than 40000 nM; in that of `CSc1ncc(CNc2cc(Cl)c3ncc(C#N)c(Nc4ccc(F)c(Cl)c4)c3c2)cn1` [Example 281, 8-Chloro-4-[(3-chloro-4-fluorophenyl)amino]-6-({[2-(methylthio)pyrimidin-5-yl]methyl]amino)quinoline-3-carbonitrile], 42 nM.
`CS(=O)(=O)c1nccc(CNc2cc(Cl)c3ncc(C#N)c(Nc4ccc(F)c(Cl)c4)c3c2)n1` [Example 282, 8-Chloro-4-[(3-chloro-4-fluorophenyl)amino]-6-({[2-(methylsulfonyl)pyrimidin-4-yl]methyl}amino)quinoline-3-carbonitrile] returned an IC50 of 23 nM.
As for `N#Cc1cnc2c(Cl)cc(NCCc3cnc[nH]3)cc2c1Nc1ccc(F)c(Cl)c1` [Example 283, 8-chloro-4-[(3-chloro-4-fluorophenyl)amino]-6-{[2-(1H-imidazol-5-yl)ethyl]amino}quinoline-3-carbonitrile], the IC50 stood at 130 nM.
With `C[S+]([O-])c1cc(NCc2cnc[nH]2)cc2c(Nc3ccc(F)c(Cl)c3)c(C#N)cnc12` (stereo not drawn) [Example 284, 4-[(3-chloro-4-fluorophenyl)amino]-6-[(1H-imidazol-5-ylmethyl)amino]-8-(methylsulfinyl)quinoline-3-carbonitrile], half-maximal inhibition (IC50) required 20 nM.
The value for `CS(=O)(=O)c1cc(NCc2cnc[nH]2)cc2c(Nc3ccc(F)c(Cl)c3)c(C#N)cnc12` [Example 286, 4-[(3-chloro-4-fluorophenyl)amino]-6-[(1H-imidazol-5-ylmethyl)amino]-8-(methylsulfonyl)quinoline-3-carbonitrile] was 190 nM; that for `CSc1cc(NCc2cnc[nH]2)cc2c(Nc3ccc(F)c(Cl)c3)c(C#N)cnc12` [Example 287, 4-[(3-chloro-4-fluorophenyl)amino]-6-[(1H-imidazol-5-ylmethyl)amino]-8-(methylthio)quinoline-3-carbonitrile] was 340 nM; that for `COc1ccc(Cn2cc(CNc3cc(Br)c4ncc(C#N)c(Nc5ccc(F)c(Cl)c5)c4c3)nn2)cc1` [Example 289] was 203 nM.
With `N#Cc1cnc2c(Br)cc(NCc3nc(-c4ccccc4)n[nH]3)cc2c1Nc1ccc(F)c(Cl)c1` [Example 290, 8-Bromo-4-(3-chloro-4-fluoro-phenylamino)-6-[(5-phenyl-2H-[1,2,4]triazol-3-ylmethyl)-amino]-quinoline-3-carbonitrile], the IC50 was greater than 40000 nM.
With `N#Cc1cnc2c(Br)cc(NCc3cn(-c4ccc(C(=O)O)cc4)nn3)cc2c1Nc1ccc(F)c(Cl)c1` [Example 292, 4-(4-{[8-Bromo-4-(3-chloro-4-fluoro-phenylamino)-3-cyano-quinolin-6-ylamino]-methyl}-[1,2,3]triazol-1-yl)-benzoic acid], the midpoint of inhibition, the IC50, lay at 3.5 nM.
`CCOC(OCC)c1[nH]nnc1CNc1cc(Br)c2ncc(C#N)c(Nc3ccc(F)c(Cl)c3)c2c1` [Example 293, 8-Bromo-4-(3-chloro-4-fluoro-phenylamino)-6-[(5-diethoxymethyl-1H-[1,2,3]triazol-4-ylmethyl)-amino]-quinoline-3-carbonitrile] displayed an IC50 of 13 nM.
`N#Cc1cnc2c(Br)cc(NCc3nn[nH]c3CO)cc2c1Nc1ccc(F)c(Cl)c1` [Example 294, 8-Bromo-4-(3-chloro-4-fluoro-phenylamino)-6-[(5-hydroxymethyl-1H-[1,2,3]triazol-4-ylmethyl)-amino]-quinoline-3-carbonitrile]: half-maximal inhibition (IC50) required 500 nM.
`N#Cc1cnc2c(Br)cc(NCc3nn[nH]c3CNCCO)cc2c1Nc1ccc(F)c(Cl)c1` [Example 295, 8-Bromo-4-(3-chloro-4-fluoro-phenylamino)-6-({5-[(2-hydroxy-ethylamino)-methyl]-1H-[1,2,3]triazol-4-ylmethyl}-amino)-quinoline-3-carbonitrile] gave an IC50 of 67 nM.
The compound `N#Cc1cnc2c(Br)cc(NCc3cn(CCN4CCCCC4)nn3)cc2c1Nc1ccc(F)c(Cl)c1` [Example 296, 8-Bromo-4-(3-chloro-4-fluoro-phenylamino)-6-{[1-(2-piperidin-1-yl-ethyl)-1H-[1,2,3]triazol-4-ylmethyl]-amino}-quinoline-3-carbonitrile] registered an IC50 of 15 nM.
The value for `N#Cc1cnc2c(Br)cc(NCc3cn(CCN4CCOCC4)nn3)cc2c1Nc1ccc(F)c(Cl)c1` [Example 297, 8-Bromo-4-(3-chloro-4-fluoro-phenylamino)-6-{[1-(2-morpholin-4-yl-ethyl)-1H-[1,2,3]triazol-4-ylmethyl]-amino}-quinoline-3-carbonitrile] was 29 nM.
`N#Cc1cnc2c(Br)cc(NCc3cn(CC(=O)N4CCOCC4)nn3)cc2c1Nc1ccc(F)c(Cl)c1` [Example 298, 8-Bromo-4-(3-chloro-4-fluoro-phenylamino)-6-{[1-(2-morpholin-4-yl-2-oxo-ethyl)-1H-[1,2,3]triazol-4-ylmethyl]-amino}-quinoline-3-carbonitrile] gave an IC50 of 38 nM.
For the compound `N#Cc1cnc2c(Br)cc(NCc3ccoc3)cc2c1Nc1ccc(F)c(Cl)c1` [Example 299, 8-Bromo-4-(3-chloro-4-fluoro-phenylamino)-6-[(furan-3-ylmethyl)-amino]-quinoline-3-carbonitrile], half-maximal inhibition (IC50) required 480 nM.
As to `N#Cc1cnc2c(Br)cc(NCc3csnn3)cc2c1Nc1ccc(F)c(Cl)c1` [Example 302, 8-Bromo-4-(3-chloro-4-fluoro-phenylamino)-6-[([1,2,3]thiadiazol-4-ylmethyl)-amino]-quinoline-3-carbonitrile], inhibition was half-maximal at 21 nM (IC50).
On to `N#Cc1cnc2c(Br)cc(NCc3cn(CCN4C(=O)c5ccccc5C4=O)nn3)cc2c1Nc1ccc(F)c(Cl)c1` [Example 303, 8-Bromo-4-(3-chloro-4-fluoro-phenylamino)-6-({1-[2-(1,3-dioxo-1,3-dihydro-isoindol-2-yl)-ethyl]-1H-[1,2,3]triazol-4-ylmethyl}-amino)-quinoline-3-carbonitrile], for which the IC50 was greater than 40000 nM.
